According to patent publication US7662784B2, “Method for decreasing body weight using a somatostatin receptor agonist” (Ipsen Pharma, S.A.S., priority 1997, dated 2010):
Bridge positions count the residues as written; N and C are the ends. Square brackets hold non-standard residues; d marks the D form. Peptide text beside a SMILES is read from it.

What was measured:
[1] = tested on: Obese (fa/fa) Zucker rats; assay: Secondary endpoints: plasma glycerol and triglycerides after 6-day treatment, oral glucose challenge; type: in vivo, rat
Protocol: Obese (fa/fa) Zucker rats were treated as in example 1 above. On the last day of treatment (day 6), food was removed at 5:00 p.m., and the rats were fasted overnight. At 9:00 a.m. the next day, the animals were subjected to a glucose challenge, given as 0.8 gram/kg of glucose orally. Periodic 400 μl of blood samples were taken from the tail vein (Peterson, R. G., ILAR News, 32:16-19 (1990)) 60 min. and 30 min. before and at 30, 60, 90, and 120 min. after the administration of the glucose challenge (0.8 gram/kg orally). Aprotinin (Traysylol, Bayer UK, Hayward's Health, W. Sussex, U.K. and heparin (Sigma Chemical Co., Poole, Dorset, U.K.) were added to the blood samples to a final concentration of 400 KIU/ml and 100 units/ml, respectively. Plasma fractions were prepared from these samples by centrifugation at 4000×G in a microfuge, for the estimation of triglycerides and glycerol. Samples were then stored at −80° C. until assayed.
Plasma glycerol and triglycerides were determined using the Sigma Enzymatic (Tinder) calorimetric assay kit (Cat #337-B, Sigma Chemical Co., Poole, Dorset, U.K.) and measuring absorbance at 540 nm in a spectrophotometer.

[2] = tested on: fatty (fa/fa) Zucker rats; assay: Weight loss study, chronic (6 day) treatment in obese animal model
[3] = after six days at 3 mg/kg s.c. twice a day, samples 30 and 60 minutes before the oral glucose challenge
[4] = throughout the 2-hour test period after oral glucose challenge (0.8 gram/kg)
[5] = 3 mg/kg s.c. twice a day for six days, fatty Zucker rats

## C[C@@H](O)[C@@H]1NC(=O)[C@H](CCCCN)NC(=O)[C@@H](Cc2c[nH]c3ccccc23)NC(=O)[C@H](Cc2ccccc2)NC(=O)[C@H](Cc2ccccc2)NC(=O)[C@@H](N)CSSC[C@@H](C(N)=O)NC(=O)[C@H](Cc2ccccc2)NC1=O [BIM-23268, H-Cys-Phe-Phe-D-Trp-Lys-Thr-Phe-Cys-NH2] (H-CFF[dW]KTFC-NH2; disulfide 1-8)
[1]; 6-day treatment period at the prescribed dose (3 mg/kg s.c. twice a day)
  reducing hypertriglyceridemia: effective in reducing hypertriglyceridemia
[1]; [3]
  plasma glycerol: significantly lowered
  plasma triglycerides: significantly lowered
[1]; [4]
  plasma glycerol: significantly lower
  plasma triglycerides: significantly lower
[2]; 3 mg/kg s.c. twice a day for six days
  amount of food consumed over the entire treatment period versus control: no difference
[2]; [5]
  body weight gain versus control: lower
  toxic effect / appearance of treated group: appeared healthy
[2]; 3 mg/kg s.c. twice a day, 6-day treatment, control 26.0
  average food consumption: 25.9 g/rat/day
[2]; male fatty Zucker rats, 3 mg/kg s.c. twice a day for six days, control 418.89
  treated group's mean weight after six days: 413.6
[2]; male fatty Zucker rats, before 3 mg/kg s.c. twice a day, control 414.09
  treated group's mean weight at the start of the trial: 413.6
